Measured values as given in patent US20260176320A1, “MODULATORS OF G-PROTEIN COUPLED RECEPTORS” (priority 2018, published 2026).
Like-named read-outs stand apart in the source and are kept apart here. Numbered stars: 1 amine (or outer) side, 2 acyl side, 3 side chain; on linkers, the order of the positions; unused ones are H or OH. Square brackets hold non-standard residues; d marks the D form. Side chains are listed from the residue outwards. Peptide text beside a SMILES is read from it. * marks the point of attachment. γGlu = O=C(O)[C@H](CCC(=O)[*:2])N[*:1]; X2 = O=C(CSCC(=O)*)NCCN1C(=O)CSC1=O; Palmitoyl = CCCCCCCCCCCCCCCC(=O)*; Aib = CC(C)(N)C(=O)O

Assays:
Assay type in all cases: cell-based
GLP-1R [1] = biological target: T1, GLP-1R (Homo sapiens, UniProt P43220); assay: PathHunter β-arrestin assay
Procedure, shortened: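 Recruitment of β-arrestin is measured by luminescence after cells, plated overnight, receive serially diluted agonist for 90 min at 37 °C in medium with 0.2% BSA. Detection reagent then develops for 3 h at room temperature, protected from light.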

GIP-R = biological target: T2, GIP-R (Homo sapiens, UniProt P48546); assay: HitHunter cAMP assay (GIP-R); details: cAMP; for Emax: read-out: (Emax) GIP-R
T2 sequence (P48546 22-466): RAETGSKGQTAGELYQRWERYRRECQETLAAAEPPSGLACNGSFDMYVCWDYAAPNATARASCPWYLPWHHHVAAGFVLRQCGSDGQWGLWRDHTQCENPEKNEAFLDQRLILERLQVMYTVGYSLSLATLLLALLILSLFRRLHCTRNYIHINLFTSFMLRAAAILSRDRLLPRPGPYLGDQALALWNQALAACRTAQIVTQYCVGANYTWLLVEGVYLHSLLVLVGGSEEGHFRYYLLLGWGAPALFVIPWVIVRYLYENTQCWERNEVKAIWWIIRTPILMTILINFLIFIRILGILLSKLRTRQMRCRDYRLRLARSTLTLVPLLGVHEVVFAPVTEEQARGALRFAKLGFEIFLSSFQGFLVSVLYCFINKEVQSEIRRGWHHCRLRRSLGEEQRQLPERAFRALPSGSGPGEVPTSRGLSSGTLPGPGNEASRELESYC
Procedure, shortened: (§1)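 Agonist stimulation lasts 30 min at room temperature on 10,000 cells per well, with phosphodiesterase blocked by 625 μM IBMX. Accumulated cAMP is quantified by competitive antibody luminescence after overnight development.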

GLP-1R [2] = biological target: T1, GLP-1R; assay: HitHunter cAMP assay (GLP-1R); details: cAMP; for Emax: read-out: (Emax) GLP-1R
Procedure, shortened: as §1

[3] = PathHunter β-arrestin assay, read-out: β-arrestin activity EC50
[4] = Table 3, read-out: EC50 GIP-R/nM
[5] = Table 3A, read-out: EC50 GIP-R/nM
[6] = Table 3, read-out: EC50 GLP-1R/nM
[7] = Table 3A, read-out: EC50 GLP-1R/nM

T1 sequence (P43220 24-463): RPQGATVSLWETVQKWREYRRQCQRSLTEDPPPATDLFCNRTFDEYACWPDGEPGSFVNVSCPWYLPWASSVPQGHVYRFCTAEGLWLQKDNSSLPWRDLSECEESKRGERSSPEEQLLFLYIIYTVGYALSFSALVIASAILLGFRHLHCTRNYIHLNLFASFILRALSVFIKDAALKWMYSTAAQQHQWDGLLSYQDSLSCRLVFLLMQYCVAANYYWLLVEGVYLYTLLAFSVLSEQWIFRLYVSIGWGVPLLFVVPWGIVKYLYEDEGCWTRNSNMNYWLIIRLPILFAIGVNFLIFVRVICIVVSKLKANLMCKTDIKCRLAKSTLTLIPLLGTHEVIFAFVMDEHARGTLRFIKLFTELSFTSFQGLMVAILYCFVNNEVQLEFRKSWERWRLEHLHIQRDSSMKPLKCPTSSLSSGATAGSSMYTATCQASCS

Row | Structure (SMILES) | EC50 (GLP-1R [1]; [3]) | Emax (GIP-R; Table 3) | EC50 (GIP-R; [4]) | Emax (GIP-R; Table 3A) | EC50 (GIP-R; [5]) | Emax (GLP-1R [2]; Table 3) | EC50 (GLP-1R [2]; [6]) | Emax (GLP-1R [2]; Table 3A) | EC50 (GLP-1R [2]; [7]) | EC50 (GLP-1R [1]) | EC50 (GIP-R; EC50 GIP-R/nM, Table 3) | EC50 (GIP-R; EC50 GIP-R/nM, Table 3A) | EC50 (GLP-1R [2]; EC50 GLP-1R/nM, Table 3) | EC50 (GLP-1R [2]; EC50 GLP-1R/nM, Table 3A)
1 | CCCCCCCCCCCCCCCC(=O)N[C@@H](CCC(=O)NCCCC[C@H](NC(=O)[C@H](CO)NC(=O)[C@@H]1CCCN1C(=O)[C@@H]1CCCN1C(=O)[C@@H]1CCCN1C(=O)[C@H](C)NC(=O)CNC(=O)[C@H](CO)NC(=O)[C@H](CO)NC(=O)[C@@H]1CCCN1C(=O)CNC(=O)CNC(=O)[C@H](C)NC(=O)[C@H](CC(C)C)NC(=O)[C@H](CC(C)C)NC(=O)[C@H](Cc1c[nH]c2ccccc12)NC(=O)[C@H](CC(N)=O)NC(=O)[C@@H](NC(=O)[C@H](Cc1ccccc1)NC(=O)[C@H](CCC(=O)O)NC(=O)C(C)(C)NC(=O)[C@H](C)NC(=O)[C@H](C)NC(=O)[C@H](CCC(N)=O)NC(=O)[C@H](CCCCN)NC(=O)[C@H](CC(=O)O)NC(=O)[C@H](CC(C)C)NC(=O)[C@H](Cc1ccc(O)cc1)NC(=O)[C@@H](NC(=O)[C@H](CO)NC(=O)[C@H](Cc1ccc(O)cc1)NC(=O)[C@H](CC(=O)O)NC(=O)[C@H](CO)NC(=O)[C@@H](NC(=O)[C@H](Cc1ccccc1)NC(=O)[C@@H](NC(=O)CNC(=O)[C@H](CCC(=O)O)NC(=O)CSCC(=O)NCCN1CCCS1(=O)=O)[C@@H](C)O)[C@@H](C)O)[C@@H](C)CC)C(C)C)C(N)=O)C(=O)O [Compound 42] | > 1000 nM | 28 to 46% | 0.1 to 10 nM | 28 to 46% | 0.1 to 100 nM | 102 to 109% | < 1 nM | 102 to 109% | < 1 nM | – | – | – | – | –
2 | CCCCCCCCCCCCCCCC(=O)N[C@@H](CCC(=O)NCCCC[C@H](NC(=O)[C@H](CO)NC(=O)[C@@H]1CCCN1C(=O)[C@@H]1CCCN1C(=O)[C@@H]1CCCN1C(=O)[C@H](C)NC(=O)CNC(=O)[C@H](CO)NC(=O)[C@H](CO)NC(=O)[C@@H]1CCCN1C(=O)CNC(=O)CNC(=O)[C@H](C)NC(=O)[C@H](CC(C)C)NC(=O)[C@H](CC(C)C)NC(=O)[C@H](Cc1c[nH]c2ccccc12)NC(=O)[C@H](CC(N)=O)NC(=O)[C@@H](NC(=O)[C@H](Cc1ccccc1)NC(=O)[C@H](CCC(=O)O)NC(=O)C(C)(C)NC(=O)[C@H](C)NC(=O)[C@H](C)NC(=O)[C@H](CCC(N)=O)NC(=O)[C@H](CCCCN)NC(=O)[C@H](CC(=O)O)NC(=O)[C@H](CC(C)C)NC(=O)[C@H](Cc1ccc(O)cc1)NC(=O)[C@@H](NC(=O)[C@H](CO)NC(=O)[C@H](Cc1ccc(O)cc1)NC(=O)[C@H](CC(=O)O)NC(=O)[C@H](CO)NC(=O)[C@@H](NC(=O)[C@H](Cc1ccccc1)NC(=O)[C@@H](NC(=O)CNC(=O)[C@H](CCC(=O)O)NC(=O)CSCC(=O)NCCN1C(=O)CC[C@@H]1CO)[C@@H](C)O)[C@@H](C)O)[C@@H](C)CC)C(C)C)C(N)=O)C(=O)O [Compound 43] | – | 60 to 73% | – | 60 to 73% | – | 93 to 97% | – | 93 to 97% | – | > 1000 nM | 1 to 10 nM | 1 to 10 nM | 0.1 to 1 nM | 0.1 to 1 nM
3 | CCCCCCCCCCCCCCCC(=O)N[C@@H](CCC(=O)NCCCC[C@H](NC(=O)[C@H](CO)NC(=O)[C@@H]1CCCN1C(=O)[C@@H]1CCCN1C(=O)[C@@H]1CCCN1C(=O)[C@H](C)NC(=O)CNC(=O)[C@H](CO)NC(=O)[C@H](CO)NC(=O)[C@@H]1CCCN1C(=O)CNC(=O)CNC(=O)[C@H](C)NC(=O)[C@H](CC(C)C)NC(=O)[C@H](CC(C)C)NC(=O)[C@H](Cc1c[nH]c2ccccc12)NC(=O)[C@H](CC(N)=O)NC(=O)[C@@H](NC(=O)[C@H](Cc1ccccc1)NC(=O)[C@H](CCC(=O)O)NC(=O)C(C)(C)NC(=O)[C@H](C)NC(=O)[C@H](C)NC(=O)[C@H](CCC(N)=O)NC(=O)[C@H](CCCCN)NC(=O)[C@H](CC(=O)O)NC(=O)[C@H](CC(C)C)NC(=O)[C@H](Cc1ccc(O)cc1)NC(=O)[C@@H](NC(=O)[C@H](CO)NC(=O)[C@H](Cc1ccc(O)cc1)NC(=O)[C@H](CC(=O)O)NC(=O)[C@H](CO)NC(=O)[C@@H](NC(=O)[C@H](Cc1ccccc1)NC(=O)[C@@H](NC(=O)CNC(=O)[C@H](CCC(=O)O)NC(=O)CSCC(=O)NCCN1C(=O)CC[C@H]1CO)[C@@H](C)O)[C@@H](C)O)[C@@H](C)CC)C(C)C)C(N)=O)C(=O)O [Compound 44] | – | 54 to 67% | – | 54 to 67% | – | 97 to 99% | – | 97 to 99% | – | > 1000 nM | 1 to 10 nM | 1 to 10 nM | 0.1 to 1 nM | 0.1 to 1 nM
4 | CCCCCCCCCCCCCCCC(=O)NCCCC[C@H](NC(=O)[C@H](CO)NC(=O)[C@@H]1CCCN1C(=O)[C@@H]1CCCN1C(=O)[C@@H]1CCCN1C(=O)[C@H](C)NC(=O)CNC(=O)[C@H](CO)NC(=O)[C@H](CO)NC(=O)[C@@H]1CCCN1C(=O)CNC(=O)CNC(=O)[C@H](C)NC(=O)[C@H](CC(C)C)NC(=O)[C@H](CC(C)C)NC(=O)[C@H](Cc1c[nH]c2ccccc12)NC(=O)[C@H](CC(N)=O)NC(=O)[C@@H](NC(=O)[C@H](Cc1ccccc1)NC(=O)[C@H](CCC(=O)O)NC(=O)C(C)(C)NC(=O)[C@H](C)NC(=O)[C@H](C)NC(=O)[C@H](CCC(N)=O)NC(=O)[C@H](CCCCN)NC(=O)[C@H](CC(=O)O)NC(=O)[C@H](CC(C)C)NC(=O)[C@H](Cc1ccc(O)cc1)NC(=O)[C@@H](NC(=O)[C@H](CO)NC(=O)[C@H](Cc1ccc(O)cc1)NC(=O)[C@H](CC(=O)O)NC(=O)[C@H](CO)NC(=O)[C@@H](NC(=O)[C@H](Cc1ccccc1)NC(=O)[C@@H](NC(=O)CNC(=O)[C@H](CCC(=O)O)NC(=O)CSCC(=O)NCCN1C(=O)CSC1=O)[C@@H](C)O)[C@@H](C)O)[C@@H](C)CC)C(C)C)C(N)=O [Compound 60] | > 1000 nM | 37% | 1 to 10 nM | 37% | 1 to 10 nM | 98% | 0.1 to 1 nM | 98% | 0.1 to 1 nM | – | – | – | – | –
5 | CCCCCCCCCCCCCCCC(=O)N[C@@H](CCC(=O)NCCCC[C@H](NC(=O)[C@H](CO)NC(=O)[C@@H]1CCCN1C(=O)[C@@H]1CCCN1C(=O)[C@@H]1CCCN1C(=O)[C@H](C)NC(=O)CNC(=O)[C@H](CO)NC(=O)[C@H](CO)NC(=O)[C@@H]1CCCN1C(=O)CNC(=O)CNC(=O)[C@H](C)NC(=O)[C@H](CC(C)C)NC(=O)[C@H](CC(C)C)NC(=O)[C@H](Cc1c[nH]c2ccccc12)NC(=O)[C@H](CC(N)=O)NC(=O)[C@@H](NC(=O)[C@H](Cc1ccccc1)NC(=O)[C@H](CCC(=O)O)NC(=O)C(C)(C)NC(=O)[C@H](C)NC(=O)[C@H](C)NC(=O)[C@H](CCC(N)=O)NC(=O)[C@H](CCCCN)NC(=O)[C@H](CC(=O)O)NC(=O)[C@H](CCSC)NC(=O)[C@H](C)NC(=O)[C@@H](NC(=O)[C@H](CO)NC(=O)[C@H](Cc1ccc(O)cc1)NC(=O)[C@H](CC(=O)O)NC(=O)[C@H](CO)NC(=O)[C@@H](NC(=O)[C@H](Cc1ccccc1)NC(=O)[C@@H](NC(=O)CNC(=O)[C@H](CCC(=O)O)NC(=O)CSCC(=O)NCCN1C(=O)CSC1=O)[C@@H](C)O)[C@@H](C)O)[C@@H](C)CC)C(C)C)C(N)=O)C(=O)O [Compound 71] (X2-EGTFTSDYSIAMDKQAA[Aib]EFVNWLLAGGPSSGAPPPSK([γGlu-Palmitoyl])-NH2) | > 1000 nM | 77 to 87% | 1 to 10 nM | 77 to 87% | 1 to 10 nM | 102% | 0.1 to 10 nM | 102% | 0.1 to 10 nM | – | – | – | – | –
